# Assay results: ChEMBL document CHEMBL3639292, “17-hydroxy-19-nor-21-carboxylic acid-steroid Œ=-lactone derivative, use thereof, and medicament containing the derivative” (2015)
# Biological target: T1, Androgen receptor (Homo sapiens, UniProt P10275)
# T1 sequence (P10275 whole entry): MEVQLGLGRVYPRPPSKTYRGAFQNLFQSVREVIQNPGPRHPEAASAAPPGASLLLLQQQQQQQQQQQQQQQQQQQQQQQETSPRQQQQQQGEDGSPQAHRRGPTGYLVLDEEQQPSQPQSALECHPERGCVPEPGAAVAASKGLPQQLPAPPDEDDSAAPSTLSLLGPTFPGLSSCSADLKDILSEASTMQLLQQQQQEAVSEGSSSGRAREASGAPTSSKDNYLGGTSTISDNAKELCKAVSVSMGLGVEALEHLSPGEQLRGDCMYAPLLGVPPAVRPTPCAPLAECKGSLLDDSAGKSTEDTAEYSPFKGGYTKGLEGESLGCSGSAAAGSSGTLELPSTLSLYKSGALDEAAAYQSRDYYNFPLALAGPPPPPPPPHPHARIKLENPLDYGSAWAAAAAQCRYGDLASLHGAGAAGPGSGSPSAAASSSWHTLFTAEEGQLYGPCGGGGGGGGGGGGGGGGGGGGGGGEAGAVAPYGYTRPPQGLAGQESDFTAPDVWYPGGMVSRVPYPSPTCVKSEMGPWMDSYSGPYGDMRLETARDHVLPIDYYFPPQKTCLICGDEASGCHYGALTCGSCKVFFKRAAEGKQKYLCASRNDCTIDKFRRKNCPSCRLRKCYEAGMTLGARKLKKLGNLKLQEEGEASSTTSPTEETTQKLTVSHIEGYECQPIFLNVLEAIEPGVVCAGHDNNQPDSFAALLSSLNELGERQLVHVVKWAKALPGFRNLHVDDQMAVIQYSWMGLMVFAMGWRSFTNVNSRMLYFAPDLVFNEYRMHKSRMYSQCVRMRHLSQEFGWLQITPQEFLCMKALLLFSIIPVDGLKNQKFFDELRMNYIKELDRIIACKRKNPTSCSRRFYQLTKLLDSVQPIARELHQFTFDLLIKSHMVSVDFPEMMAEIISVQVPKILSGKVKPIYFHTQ
# Assay: Binding Assay: The test was carried out as in 1., with the following modifications: cytosol from androgen receptor-expressing insect cells (Hi5) was used, and the reference substance was 3H-testosterone.The results of the binding tests and the ratio of the competition factors CF(PR) and CR(MR) are shown in Table 1, which for comparison also shows receptor binding values of drospirenone as …
row,SMILES,IC50 [nM]
1,CC[C@]12CC[C@H]3[C@@H](CC4(CC4)C4=CC(=O)CC[C@@H]43)[C@@H]1CC[C@@]21C=CC(=O)O1,42
2,C[C@]12CC[C@H]3[C@@H](CC4(CC4)C4=CC(=O)CC[C@@H]43)[C@@H]1CC[C@@]21C=CC(=O)O1,37
